Laboratory results published in paper PMC11621054, “Biological evaluation of semi-synthetic isoindolinone isomers produced by Stachybotrys chartarum” (Frontiers in Fungal Biology, 2024).
Entries after “also recorded” stand apart in the source; their conditions may differ.

How the values were obtained:
[1] = Hepatic phase II sulfation, human cytosol; assay type: in vitro ADME; conditions: 50 µM, 4 h
Protocol: (§1) Liver microsomes and cytosol were obtained for two organisms, horse and human. Fresh horse liver was purchased locally cut to pieces of ca. 50 g each and frozen in liquid nitrogen. Until further usage, the liver was stored at -80 °C. The preparation of microsomes and cytosol was carried out according to Balk et al. ([Balk et al., 1984]), and the protein content was determined by Bradford assay with bovine serum albumin as a reference ([Bradford, 1976]). Human liver microsomes and cytosol (150 Donors Ultrapool™) were provided by Corning, Inc. (Corning, New York, NY, USA). Besides assay-specific positive controls, all assays included stability controls, moreover, matrix influences were considered. For oxidation, additional non-oxidation controls were included. Each experiment was performed in duplicate. All stated concentrations are final concentration values. The test compounds (acetoxystachybotrylactam acetate-tryptophan 2a, 2b and acetoxystachybotrylactam acetate-tryptamine 3a, 3b ) were extended by the most biologically active derivative previously characterized by our group (acetoxystachybotrylactam acetate-agmatine 4 ) ([Steinert et al., 2022]).
(§2) For phase II metabolism, potential sulfation and glucuronidation were investigated. For sulfation, the reaction mixture was pipetted as follows: first, ultrapure water was added and mixed with a 1 mM DTT solution (contains DTT, 100 mM phosphate buffer, 100 µM ascorbic acid, pH 7.4). Then, PAPS (100 µM) and the substance of interest (50 µM) were added, which was concluded by the addition of horse/human cytosol (10 mg protein/mL). For glucuronidation, first, ultrapure H2O, phosphate buffer (50 mM) and MgCl2 (5 mM) were added to the reaction vessel, followed by addition of the investigated substance (50 µM), UDPGA (5 µM), and horse/human microsomes (1 mg protein/mL), respectively. For both assays, the final volume was 100 µL which was subsequently incubated for 4 h at 37 °C in darkness. […] After centrifugation (4 °C, 10 min, 15,000 rpm), 150 µL of supernatant was diluted with 850 µL H2O, which was subsequently analyzed by HPLC-qToF-HRMS. […]

[2] = Hepatic phase II glucuronidation, horse microsomes; assay type: in vitro ADME; conditions: 50 µM, 4 h; for glucuronidation: conversion and formation of glucuronides, in words: horse microsomes
Protocol: as §1, §2

[3] = Hepatic phase I metabolism (oxidation), human microsomes; assay type: in vitro ADME; conditions: 10 µM, 90 min
Protocol: as §1
(§3) The phase I metabolism was investigated utilizing a NADPH- regenerating system. […] After centrifugation (4 °C, 10 min, 15,000 rpm), 150 µL of supernatant was diluted with 850 µL H2O, which was subsequently analyzed by HPLC-qToF-HRMS. […]

[4] = Hepatic phase I metabolism (oxidation), horse microsomes; assay type: in vitro ADME; conditions: 10 µM, 90 min
Protocol: as §1, §3

[5] = test system: Human liver carcinoma cells (HepG2, HB-8065); design: method as in Steinert et al., 2022; conditions: 50 µM, 24 h; data of Figure 8 for compound 1 from previous investigation; ref Steinert et al., 2022; cited from earlier work
HepG2 = experiment: Micronucleus assay (genotoxicity, OECD 487); assay type: cell-based, human; conditions: 1 at 25 µM, 3a at 5 and 25 µM
Protocol: The genotoxic effects of the AcAc ( 1 ) and its semi-synthetic products ( 2a , 2b; 3a , 3b ) were evaluated with the micronucleus assay, performed based on OECD Test guideline 487. HepG2 were cultivated in accordance with the descriptions of Kalinina et al. ([Kalinina et al., 2018]). The cells were seeded with 300,000 cells/slide on Polysine® slides (Epredia™ Polysine™ Microscopic Adhesion Slides, FisherScientific) in quadriPERM® culture dishes (Sarstedt, Nümbrecht, Germany) and cultivated for 24 h. Then, they were incubated with the test compounds (0.5-25 µM) in serum free DMEM for 5 h. As positive control 0.6 µM mitomycin C (MMC) was used. All tested compounds were dissolved in DMSO. Cells were washed with sterile phosphate-buffered saline (PBS) and incubated with 4 µg/mL cytokinesis inhibitor cytochalasin B (Santa Cruz Biotechnology, USA) in DMEM for 19 h. Slides were washed with PBS and cold MeOH. Afterwards, cells were fixated with MeOH at -20 °C for 1 h. […] Subsequently, cells were evaluated using a fluorescence microscope (Zeiss Axio Imager 2, Oberkochen, Germany) with filters of 365/445 nm and 546/575 nm. The micronucleus rate was evaluated by counting 1,000 binucleate cells and binucleate cells with micronuclei on each slide and calculating the proportion of binucleate cells containing one or more micronuclei. […]

[6] = Hepatic phase II glucuronidation, human microsomes; assay type: in vitro ADME; conditions: 50 µM, 4 h; for glucuronidation: conversion and formation of glucuronides, in words: human microsomes
Protocol: as §1
For phase II metabolism, potential sulfation and glucuronidation were investigated. For sulfation, the reaction mixture was pipetted as follows: first, ultrapure water was added and mixed with a 1 mM DTT solution (contains DTT, 100 mM phosphate buffer, 100 µM ascorbic acid, pH 7.4). Then, PAPS (100 µM) and the substance of interest (50 µM) were added, which was concluded by the addition of horse/human cytosol (10 mg protein/mL). For glucuronidation, first, ultrapure H2O, phosphate buffer (50 mM) and MgCl2 (5 mM) were added to the reaction vessel, followed by addition of the investigated substance (50 µM), UDPGA (5 µM), and horse/human microsomes (1 mg protein/mL), respectively. For both assays, the final volume was 100 µL which was subsequently incubated for 4 h at 37 °C in darkness. Quenching and protein precipitation was achieved by adding 200 µL of cold MeCN (-20 °C). After centrifugation (4 °C, 10 min, 15,000 rpm), 150 µL of supernatant was diluted with 850 µL H2O, which was subsequently analyzed by HPLC-qToF-HRMS. For both experiments, 50 µM 7-hydroxycumarin served as positive control.
Chromatographic separation and mass spectrometric detection were identical to the parameters already described for the fragmentation experiments for phase I and phase II glucuronidation metabolism. For sulfation, the HPLC-qToF-HRMS was operated in negative ionization mode at -4.5 kV and otherwise identical source parameters as previously described. […]

[7] = Hepatic phase II sulfation, horse cytosol; assay type: in vitro ADME; conditions: 50 µM, 4 h
Protocol: as §1, §2

human β-FXIIa = biological target: T1, human β-FXIIa (Homo sapiens, UniProt P00748); experiment: Serine protease inhibition assay, fluorogenic substrate, FXIIa; assay type: biochemical; conditions: endpoint RFU after 1 h, 25 °C
T1 construct: human β-FXIIa, HFXIIAB, > 95% purity; Molecular Innovations; purchased Molecular Innovations HFXIIAB
T1 sequence (P00748 373-615 limits assumed, other chains not shown): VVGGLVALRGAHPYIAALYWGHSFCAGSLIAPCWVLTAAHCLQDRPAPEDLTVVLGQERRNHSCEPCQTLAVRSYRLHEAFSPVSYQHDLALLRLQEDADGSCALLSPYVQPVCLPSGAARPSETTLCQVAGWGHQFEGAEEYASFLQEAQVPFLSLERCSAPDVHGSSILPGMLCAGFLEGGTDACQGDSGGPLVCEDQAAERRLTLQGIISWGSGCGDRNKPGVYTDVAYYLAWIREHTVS
Protocol: (§4) The inhibitory activity of further semi-synthesized compounds toward the coagulation factor XIIa, thrombin, FXIa, FXa, and trypsin was measured by quantifying the hydrolysis rate of the fluorogenic substrates as reported previously ([Korff et al., 2020]; [Platte et al., 2021]; [Imberg et al., 2022]). Briefly, the activity was tested in buffer (10 mM Tris-Cl, 150 mM NaCl, 10 mM MgCl2·6 H2O, 1 mM CaCl2·2 H2O, 0.1% w/v BSA, 0.01% v/v Triton-X100, pH 7.4) utilizing clear flat-bottom, black polystyrene 96-well plates. The enzymes (human β-FXIIa, HFXIIAB, > 95% purity; Molecular Innovations, 2.5 nM – final concentration; human α-thrombin (active) protein, ABIN2127880, > 95% purity; antibodies-online, 0.25 nM – final concentration; human Factor Xa, HFXA, > 95% purity; Molecular Innovations, 2.5 nM – final concentration; human factor XIa, HFXIA, >95% purity; Molecular Innovations, 0.5 nM – final concentration porcine trypsin; Merck, 3.5 nM – final concentration) and the fluorogenic substrates for FXIIa: Boc-Gln-Gly-Arg-AMC (Pepta Nova, 25 µM – final concentration, Km = 167 µM); for thrombin: Boc Val Pro Arg AMC (Pepta Nova, 25 µM – final concentration, Km = 18 µM); for FXa: Boc-Ile-Glu-Gly-Arg-AMC (Pepta Nova, 25 µM – final concentration); for FXIa: Boc-Glu-(OBzl)-Ala-Arg-AMC (Pepta Nova, 25 µM – final concentration); for trypsin: Z-Gly-Gly-Arg-AMC (Sigma-Aldrich, 25 µM – final concentration) were used. The fluorogenic substrate solution was added into the wells followed by the addition of test-compounds solution, and the reaction was triggered by addition of the enzyme solution (final testing volume – 150 µL). In case of blank (substrate + buffer) and control (substrate + enzyme) wells, DMSO was added instead of the test-compounds’ solution. Fluorescence intensity was measured with Microplate Reader Mithras LB 940 (Berthold Technologies, excitation at 355 nm, emission at 460 nm) for a period of 1 h with a read every minute. The reactions were performed at 25 °C. To derive % of enzyme inhibition, endpoint RFU (single fluorescence reading after 1 h) was used. As a positive controls for thrombin, FXa, FXIIa, FXIa, and trypsin were used dabigatran (500 nM), rivaroxaban (500 nM), compound “39b” (500 nM) ([Platte et al., 2021]), Inhibitor 5t (8 µM) ([Imberg et al., 2022]), Inhibitor E (2 µM) ([Erbacher et al., 2024]), respectively. Semi-synthesized compounds were screened at 200 µM.

[8] = test system: Human liver carcinoma cells (HepG2, HB-8065); conditions: HepG2, 24 h incubation, resazurin
human factor XIa = biological target: T2, human factor XIa (Homo sapiens, UniProt P03951); experiment: Serine protease inhibition assay, fluorogenic substrate, FXIa; assay type: biochemical; conditions: endpoint RFU after 1 h, 25 °C
T2 construct: human factor XIa, HFXIA, >95% purity; Molecular Innovations; purchased Molecular Innovations HFXIA
T2 sequence (P03951 388-625 limits assumed): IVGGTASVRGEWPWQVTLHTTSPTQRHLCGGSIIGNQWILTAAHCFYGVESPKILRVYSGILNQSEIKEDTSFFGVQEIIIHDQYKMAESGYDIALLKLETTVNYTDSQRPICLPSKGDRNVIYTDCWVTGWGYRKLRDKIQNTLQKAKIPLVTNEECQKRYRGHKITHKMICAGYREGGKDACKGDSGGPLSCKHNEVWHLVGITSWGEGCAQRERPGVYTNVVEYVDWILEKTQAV
T2 sequence (P03951 19-387 partner limits assumed): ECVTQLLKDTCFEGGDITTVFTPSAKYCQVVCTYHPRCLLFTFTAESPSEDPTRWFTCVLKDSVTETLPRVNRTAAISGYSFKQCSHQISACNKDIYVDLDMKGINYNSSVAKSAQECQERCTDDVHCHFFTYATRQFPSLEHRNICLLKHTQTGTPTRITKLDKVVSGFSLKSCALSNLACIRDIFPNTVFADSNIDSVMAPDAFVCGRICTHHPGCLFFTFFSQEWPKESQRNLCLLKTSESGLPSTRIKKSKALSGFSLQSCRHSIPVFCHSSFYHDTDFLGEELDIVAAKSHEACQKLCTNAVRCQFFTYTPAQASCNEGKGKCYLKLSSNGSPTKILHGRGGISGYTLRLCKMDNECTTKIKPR
Protocol: as §4

porcine trypsin = biological target: T3, porcine trypsin (Sus scrofa, UniProt P00761); experiment: Serine protease inhibition assay, fluorogenic substrate, trypsin; assay type: biochemical; conditions: 200 µM, endpoint RFU after 1 h, 25 °C
T3 construct: porcine trypsin; Merck, 3.5 nM – final concentration; purchased Merck
T3 sequence (P00761 9-231): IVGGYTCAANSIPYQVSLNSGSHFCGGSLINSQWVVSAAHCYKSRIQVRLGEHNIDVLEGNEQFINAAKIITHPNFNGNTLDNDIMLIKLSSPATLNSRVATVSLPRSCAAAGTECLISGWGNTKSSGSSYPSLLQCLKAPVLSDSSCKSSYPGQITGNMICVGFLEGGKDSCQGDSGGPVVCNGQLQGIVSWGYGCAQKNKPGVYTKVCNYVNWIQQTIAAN
Protocol: (§5) The inhibitory activity of further semi-synthesized compounds toward the coagulation factor XIIa, thrombin, FXIa, FXa, and trypsin was measured by quantifying the hydrolysis rate of the fluorogenic substrates as reported previously ([Korff et al., 2020]; [Platte et al., 2021]; [Imberg et al., 2022]). Briefly, the activity was tested in buffer (10 mM Tris-Cl, 150 mM NaCl, 10 mM MgCl2·6 H2O, 1 mM CaCl2·2 H2O, 0.1% w/v BSA, 0.01% v/v Triton-X100, pH 7.4) utilizing clear flat-bottom, black polystyrene 96-well plates. […] Fluorescence intensity was measured with Microplate Reader Mithras LB 940 (Berthold Technologies, excitation at 355 nm, emission at 460 nm) for a period of 1 h with a read every minute. […] To derive % of enzyme inhibition, endpoint RFU (single fluorescence reading after 1 h) was used. […]

[9] = Precipitation in cell culture medium; assay type: physicochemical; conditions: cell culture medium (DMEM), 0.5% DMSO
human Factor Xa = biological target: T4, human Factor Xa (Homo sapiens, UniProt P00742); experiment: Serine protease inhibition assay, fluorogenic substrate, FXa; assay type: biochemical; conditions: 200 µM, endpoint RFU after 1 h, 25 °C
T4 construct: human Factor Xa, HFXA, > 95% purity; Molecular Innovations; purchased Molecular Innovations HFXA
T4 sequence (P00742 235-488 limits assumed): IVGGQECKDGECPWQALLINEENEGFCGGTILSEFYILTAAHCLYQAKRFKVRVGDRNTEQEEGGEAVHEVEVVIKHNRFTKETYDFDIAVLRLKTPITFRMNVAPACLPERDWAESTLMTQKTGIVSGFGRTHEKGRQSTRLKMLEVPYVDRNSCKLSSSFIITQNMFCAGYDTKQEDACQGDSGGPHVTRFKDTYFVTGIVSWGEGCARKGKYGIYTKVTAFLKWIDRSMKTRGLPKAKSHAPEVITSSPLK
T4 sequence (P00742 41-179 partner limits assumed): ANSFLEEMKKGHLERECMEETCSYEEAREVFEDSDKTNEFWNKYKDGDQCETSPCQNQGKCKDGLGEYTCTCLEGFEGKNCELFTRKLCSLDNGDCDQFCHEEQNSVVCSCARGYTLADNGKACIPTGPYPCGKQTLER
Protocol: as §5

| Structure (SMILES) | metabolism under sulfation conditions, in words [1] | glucuronidation: conversion and formation of glucuronides, in words [2] | remaining parental compound, glucuronidation (phase II) ([2]; horse, 37 °C, normalized to stability control, n.d. = not detected) | phase I conversion, in words [3] | phase I conversion, in words [4] | HepG2 cell viability [5] | cell damage seen in the micronucleus assay (slides excluded from evaluation) (HepG2) | glucuronidation: conversion and formation of glucuronides, in words [6] | remaining parental compound, glucuronidation (phase II) ([6]; human, 37 °C, normalized to stability control, n.d. = not detected) | metabolism under sulfation conditions, in words [7] | inhibition at 200 µM (human β-FXIIa) [%] | cytotoxicity (cell viability, T/C), in words [8] | inhibition at 200 µM (human factor XIa) [%] | inhibition of FXIIa (human β-FXIIa; 200 µM) | inhibition of trypsin (porcine trypsin) | concentration at which precipitation in cell culture medium starts [9] [µM] | inhibition of FXa (human Factor Xa) |
| --- | --- | --- | --- | --- | --- | --- | --- | --- | --- | --- | --- | --- | --- | --- | --- | --- | --- |
| CC(=O)O[C@@H]1[C@H](OC(C)=O)C[C@@]2(C)C(CC[C@@H](C)[C@]23Cc2c(O)cc(C=O)c(C=O)c2O3)C1(C)C (stereo partly drawn) [Compound 1, acetoxystachybotrydial acetate] | did undergo metabolism | did not at all | no 1 remaining in solution | metabolized fastest | metabolized fastest | below 50% | left the cells visibly damaged | did not at all | no 1 remaining in solution | did undergo metabolism | – | – | – | – | – | – | – |
| CC(=O)OC1CC2(C)C(CCC(C)C23Cc2c(O)cc4c(c2O3)CN(C(Cc2c[nH]c3ccccc23)C(=O)O)C4=O)C(C)(C)C1OC(C)=O (stereo not drawn) [Compound 2a, Acetoxystachybotrylactam acetate-tryptophan] | – | – | – | – | – | – | – | – | – | – | 63 | more toxic | 51 | – | – | – | – |
| CC(=O)OC1CC2(C)C(CCC(C)C23Cc2c(O)cc4c(c2O3)C(=O)N(C(Cc2c[nH]c3ccccc23)C(=O)O)C4)C(C)(C)C1OC(C)=O (stereo not drawn) [Compound 2b, Acetoxystachybotrylactam acetate-tryptophan] | – | more readily converted; also recorded: more available for glucuronidation than 2a | – | – | – | – | – | more readily converted; also recorded: more available for glucuronidation than 2a | – | – | 34 | less cytotoxic | 66 | – | – | – | – |
| CC(=O)OC1CC2(C)C(CCC(C)C23Cc2c(O)cc4c(c2O3)CN(CCc2c[nH]c3ccccc23)C4=O)C(C)(C)C1OC(C)=O (stereo not drawn) [Compound 3a, Acetoxystachybotrylactam acetate-tryptamine] | – | – | – | – | – | – | impaired cell viability even more | – | – | – | – | – | 9 | no inhibition | no inhibition | ≥ 10 | no inhibition |
